Measurements published in patent US20240024317A1, “CANCER TREATMENT USING BOSENTAN IN COMBINATION WITH A CHECKPOINT INHIBITOR” (Materia Therapeutics Inc., priority 2020, published 2024).

Experiments:
4T1 tumors [1] = assay: Primary tumor growth, bosentan plus ICB cocktail, neo-adjuvant setting; type: in vivo, mice; settings: 1 mg/kg bosentan combined with ICB cocktail (10 mg/kg anti-PD-1, 5 mg/kg anti-CTLA-4); n=8-10
Protocol: (§1) To determine if a stiffness-reducing and hypoxia-reducing (blood flow-increasing) regimen of bosentan could enhance the efficacy of an ICB cocktail of anti-PD-1 (mouse monoclonal anti-PD-1 CD279, clone RMP1-14, BioXCell) and anti-CTLA-4 (mouse monoclonal anti-CTLA-4 CD152, clone 9D9, BioXCell) antibodies, mice bearing primary tumors in a neo-adjuvant setting were administered various treatments. Therapy was administered before removing the primary tumors surgically to assess mice survival against spontaneous metastases that arose on treatment. For the combinatorial treatment with bosentan and Immunotherapy studies, bosentan 1 mg/kg or equal volume of diluent (control group) was administered by intraperitoneal injection (i.p.) once a day for 14 days, starting from once the tumor volumes reached an average size of 5 mm diameter. Immunotherapy was administrated as a cocktail of 10 mg/kg anti-PD-1 (CD279, clone RMP1-14, BioXCell) and 5 mg/kg anti-CTLA-4 (CD152, clone 9D9) following dilution in the recommended InVivoPure pH 7.0 Dilution Buffer (BioXCell). […] Planar dimensions (x, y) of tumor were monitored every 2-3 days using a digital caliper and tumor volume was estimated from the volume of an ellipsoid and assuming that the third dimension, z, is equal to x y. […]

E0771 tumors = assay: as above; type: in vivo, mice; settings: 1 mg/kg bosentan combined with ICB cocktail (10 mg/kg anti-PD-1, 5 mg/kg anti-CTLA-4); n=10
Protocol: as §1

[2] = test system: spontaneous 4T1 metastases; assay: Survival of mice with spontaneous metastases after surgical removal of primary tumors; type: in vivo; settings: 1 mg/kg bosentan combined with ICB cocktail, n=8-10
Protocol: (§2) To determine if a stiffness-reducing and hypoxia-reducing (blood flow-increasing) regimen of bosentan could enhance the efficacy of an ICB cocktail of anti-PD-1 (mouse monoclonal anti-PD-1 CD279, clone RMP1-14, BioXCell) and anti-CTLA-4 (mouse monoclonal anti-CTLA-4 CD152, clone 9D9, BioXCell) antibodies, mice bearing primary tumors in a neo-adjuvant setting were administered various treatments. Therapy was administered before removing the primary tumors surgically to assess mice survival against spontaneous metastases that arose on treatment. For the combinatorial treatment with bosentan and Immunotherapy studies, bosentan 1 mg/kg or equal volume of diluent (control group) was administered by intraperitoneal injection (i.p.) once a day for 14 days, starting from once the tumor volumes reached an average size of 5 mm diameter. Immunotherapy was administrated as a cocktail of 10 mg/kg anti-PD-1 (CD279, clone RMP1-14, BioXCell) and 5 mg/kg anti-CTLA-4 (CD152, clone 9D9) following dilution in the recommended InVivoPure pH 7.0 Dilution Buffer (BioXCell). The immunotherapy cocktail was administered i.p. when tumors reached an average size of 200 mm^3 every three days for three doses. For the immunotherapy studies, animals were also treated with a non-targeting isotype control antibody (BioXCell). Primary tumors were excised when they reached an average size of 700 mm^3 and the tissue was sutured for the study of the metastatic tumors. Planar dimensions (x, y) of tumor were monitored every 2-3 days using a digital caliper and tumor volume was estimated from the volume of an ellipsoid and assuming that the third dimension, z, is equal to […]. For the overall survival studies, the ending point was the time to mouse death. […] In the E0771 study, 8 out of 10 mice initiated survived. […] The remaining five mice were rechallenged with a second inoculation of E0771 cells and the tumor growth rates were compared against healthy age-matched control mice.

[3] = test system: spontaneous E0771 metastases; assay: as above; type: in vivo
Protocol: as §2

E0771 cancer cells = assay: Rechallenge of surviving mice with a second tumor cell inoculation; type: in vivo
Protocol: as §1

4T1 tumors [4] = assay: Tumor volume over time, bosentan pre-treatment plus anti-PD-1/anti-CTLA-4 (Example 5); type: in vivo, mice; settings: pre-treated with bosentan 1 mg/kg, then immunotherapy cocktail
Protocol: Syngeneic tumor models and treatment protocols. Orthotopic models for murine mammary tumors were generated by implantation of 5×10^4 4T1 cancer cells in 40 μL of serum-free medium into the third mammary fat pad of 6-8 weeks-old BALB/c mice. Mice were purchased from the Cyprus Institute of Neurology and Genetics and all in vivo experiments were conducted in accordance with the animal welfare regulations and guidelines of the Republic of Cyprus and the European Union (European Directive 2010/63/EE and Cyprus Legislation for the protection and welfare of animals, Laws 1994-2013) under a license acquired and approved (No CY/EXP/PR.L2/2018, CY/EXP/PR.L14/2019, CY/EXP/PR.L15/2019, CY/EXP/PR.L03/2020) by the Cyprus Veterinary Services committee, the Cyprus national authority for monitoring animal research for all academic institutions.
Tranilast at 200 mg/kg, bosentan at 1 mg/kg, or equal volume of diluent (control group) was administered by intraperitoneal injection (i.p.) once a day for 14 days, starting from once the tumor volumes reached an average size of 5 mm diameter. […]
Planar dimensions (x, y) of tumor were monitored every 2-3 days using a digital caliper and tumor volume was estimated from the volume of an ellipsoid and assuming that the third dimension, z, is equal to the sqrt(x y). […]

For COc1ccccc1Oc1c(NS(=O)(=O)c2ccc(C(C)(C)C)cc2)nc(-c2ncccn2)nc1OCCO [bosentan, 4-tert-butyl-N-[6-(2-hydroxy-ethoxy)-5-(2-methoxy-phenoxy)-2-(pyrimidin-2-yl)pyrimidin-4-yl] benzenesulfonamide], the tumor growth (4T1 tumors [1]) was “potentiated tumor growth inhibition”, the tumor growth (E0771 tumors) was “potentiated tumor growth inhibition” and the “survival, median overall survival (Kaplan-Meier)” value [2] was “potentiated”. The “survival (Kaplan-Meier)” value ([3]; 1 mg/kg bosentan combined with ICB cocktail, E0771) was “potentiated”, the mice surviving ([3]; E0771 study, bosentan combined with ICB cocktail) was 8 out of 10 and the “macrometastases in the lungs” value ([3]; three surviving mice sacrificed, bosentan combined with ICB cocktail) was “no evidence of macrometasteses”. For the same molecule, the “mice with tumors appearing after rechallenge” value (E0771 cancer cells; five surviving mice (bosentan plus ICB) rechallenged) was “two out of the five”, the “tumor growth rate after rechallenge” value (E0771 cancer cells; five surviving mice (bosentan plus ICB) versus healthy age-matched control mice) was “grew much slower” and the “tumor volume as a function of time” value (4T1 tumors [4]) was “effectively stop further tumor growth”.
